# According to ChEMBL document CHEMBL1201862, “PubChem BioAssay data set” (2004):
#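 Growth conditions: 96-well plates. Treatment: test compound, 48 hours, 5 concentrations. Analysis: linear interpolation between bracketing concentrations; unreached endpoints set to highest concentration. Abbreviation: GI50, concentration required for 50% inhibition of growth.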 Active and inactive are the calls of the source. No stated cut-off is given here; in the data, active = GI50 up to about 1.1 µM and inactive = higher.
# Tests used:
# Experiment in all cases: NCI-60 cell line screen, 48 h
# SK-MEL-5 = tested on: SK-MEL-5
# SK-OV-3 = tested on: SK-OV-3
# DU-145 = tested on: DU-145
# HT-29 = tested on: HT-29
# NCI/ADR-RES = tested on: NCI/ADR-RES
# SW-620 = tested on: SW-620
# M14 = tested on: M14
# HCC 2998 = tested on: HCC 2998
# MCF7 = tested on: MCF7
# MOLT-4 = tested on: MOLT-4
# ACHN = tested on: ACHN
# IGROV-1 = tested on: IGROV-1
# Malme-3M = tested on: Malme-3M
# COLO 205 = tested on: COLO 205
# SF-295 = tested on: SF-295
# EKVX = tested on: EKVX
# U-251 = tested on: U-251
# 786-0 = tested on: 786-0
# SK-MEL-28 = tested on: SK-MEL-28
# KM12 = tested on: KM12
# UO-31 = tested on: UO-31
# K562 = tested on: K562
# OVCAR-5 = tested on: OVCAR-5
# MDA-MB-231 = tested on: MDA-MB-231
# NCI-H460 = tested on: NCI-H460
# OVCAR-4 = tested on: OVCAR-4
# HCT-15 = tested on: HCT-15
# MDA-MB-435 = tested on: MDA-MB-435
# HL-60 = tested on: HL-60
# NCI-H226 = tested on: NCI-H226
# TK-10 = tested on: TK-10
# NCI-H23 = tested on: NCI-H23
# A549 = tested on: A549
# OVCAR-8 = tested on: OVCAR-8
# RPMI-8226 = tested on: RPMI-8226
# SNB-75 = tested on: SNB-75
# UACC-257 = tested on: UACC-257
# SN12C = tested on: SN12C
# HOP-92 = tested on: HOP-92
# HCT-116 = tested on: HCT-116
# SF-539 = tested on: SF-539
# CCRF-CEM = tested on: CCRF-CEM
# Hs-578T = tested on: Hs-578T
# HOP-62 = tested on: HOP-62
# SR = tested on: SR
# SNB-19 = tested on: SNB-19
# RXF 393 = tested on: RXF 393
# SF-268 = tested on: SF-268
# T47D = tested on: T47D
# UACC-62 = tested on: UACC-62
# OVCAR-3 = tested on: OVCAR-3
# NCI-H522 = tested on: NCI-H522
# SK-MEL-2 = tested on: SK-MEL-2
# CAKI-1 = tested on: CAKI-1
# LOX IMVI = tested on: LOX IMVI
# PC-3 = tested on: PC-3
# MDA-N = tested on: MDA-N
smiles,measurement,setting,value
N#CCN1CCCCCc2ccccc21,GI50,SK-MEL-5,> 100 µM (inactive)
same,GI50,SK-OV-3,> 100 µM (inactive)
same,GI50,DU-145,> 100 µM (inactive)
same,GI50,HT-29,> 100 µM (inactive)
same,GI50,NCI/ADR-RES,> 100 µM (inactive)
same,GI50,SW-620,> 100 µM (inactive)
same,GI50,M14,> 100 µM (inactive)
same,GI50,HCC 2998,> 100 µM (inactive)
same,GI50,MCF7,> 100 µM (inactive)
same,GI50,MOLT-4,> 100 µM (inactive)
same,GI50,ACHN,> 100 µM (inactive)
same,GI50,IGROV-1,> 100 µM (inactive)
same,GI50,Malme-3M,> 100 µM (inactive)
same,GI50,COLO 205,> 100 µM (inactive)
same,GI50,SF-295,53.5 µM (inactive)
same,GI50,EKVX,> 100 µM (inactive)
same,GI50,U-251,> 100 µM (inactive)
same,GI50,786-0,> 100 µM (inactive)
same,GI50,SK-MEL-28,> 100 µM (inactive)
same,GI50,KM12,> 100 µM (inactive)
same,GI50,UO-31,> 100 µM (inactive)
same,GI50,K562,> 100 µM (inactive)
same,GI50,OVCAR-5,> 100 µM (inactive)
same,GI50,MDA-MB-231,> 100 µM (inactive)
same,GI50,NCI-H460,> 100 µM (inactive)
same,GI50,OVCAR-4,> 100 µM (inactive)
same,GI50,HCT-15,> 100 µM
same,GI50,MDA-MB-435,> 100 µM (inactive)
same,GI50,HL-60,> 100 µM (inactive)
same,GI50,NCI-H226,> 100 µM (inactive)
same,GI50,TK-10,> 100 µM (inactive)
same,GI50,NCI-H23,> 100 µM (inactive)
same,GI50,A549,> 100 µM (inactive)
same,GI50,OVCAR-8,> 100 µM (inactive)
same,GI50,RPMI-8226,> 100 µM (inactive)
same,GI50,SNB-75,> 100 µM (inactive)
same,GI50,UACC-257,> 100 µM (inactive)
same,GI50,SN12C,> 100 µM (inactive)
same,GI50,HOP-92,> 100 µM (inactive)
same,GI50,HCT-116,> 100 µM (inactive)
same,GI50,SF-539,> 100 µM (inactive)
same,GI50,CCRF-CEM,> 100 µM (inactive)
same,GI50,Hs-578T,> 100 µM (inactive)
same,GI50,HOP-62,> 100 µM (inactive)
same,GI50,SR,> 100 µM (inactive)
same,GI50,SNB-19,> 100 µM (inactive)
same,GI50,RXF 393,> 100 µM (inactive)
same,GI50,SF-268,> 100 µM (inactive)
same,GI50,T47D,> 100 µM (inactive)
same,GI50,UACC-62,> 100 µM (inactive)
C/C(=C\COP(=O)(O)OP(=O)(O)O)CCCOCc1ccccc1,GI50,SK-MEL-5,46.5 µM (inactive)
same,GI50,SK-OV-3,> 100 µM (inactive)
same,GI50,DU-145,> 100 µM (inactive)
same,GI50,HT-29,> 100 µM (inactive)
same,GI50,NCI/ADR-RES,> 100 µM (inactive)
same,GI50,SW-620,> 100 µM (inactive)
same,GI50,M14,> 100 µM (inactive)
same,GI50,MCF7,> 100 µM (inactive)
same,GI50,MOLT-4,> 100 µM (inactive)
same,GI50,ACHN,> 100 µM (inactive)
same,GI50,IGROV-1,> 100 µM (inactive)
same,GI50,OVCAR-3,> 100 µM (inactive)
same,GI50,Malme-3M,> 100 µM (inactive)
same,GI50,COLO 205,> 100 µM (inactive)
same,GI50,SF-295,> 100 µM (inactive)
same,GI50,EKVX,> 100 µM (inactive)
same,GI50,U-251,> 100 µM (inactive)
same,GI50,NCI-H522,> 100 µM (inactive)
same,GI50,786-0,> 100 µM (inactive)
same,GI50,SK-MEL-28,> 100 µM (inactive)
same,GI50,SK-MEL-2,> 100 µM (inactive)
same,GI50,KM12,> 100 µM (inactive)
same,GI50,CAKI-1,> 100 µM (inactive)
same,GI50,UO-31,> 100 µM (inactive)
same,GI50,K562,> 100 µM (inactive)
same,GI50,OVCAR-5,> 100 µM (inactive)
same,GI50,MDA-MB-231,> 100 µM (inactive)
same,GI50,NCI-H460,> 100 µM (inactive)
same,GI50,OVCAR-4,> 100 µM (inactive)
same,GI50,HCT-15,> 100 µM
same,GI50,MDA-MB-435,> 100 µM (inactive)
same,GI50,HL-60,61.7 µM (inactive)
same,GI50,NCI-H226,> 100 µM (inactive)
same,GI50,TK-10,> 100 µM (inactive)
same,GI50,NCI-H23,> 100 µM (inactive)
same,GI50,LOX IMVI,> 100 µM (inactive)
same,GI50,A549,> 100 µM (inactive)
same,GI50,OVCAR-8,> 100 µM (inactive)
same,GI50,RPMI-8226,0.207 µM (active)
same,GI50,SNB-75,> 100 µM (inactive)
same,GI50,UACC-257,38.4 µM (inactive)
same,GI50,SN12C,> 100 µM (inactive)
same,GI50,HCT-116,> 100 µM (inactive)
same,GI50,SF-539,> 100 µM (inactive)
same,GI50,CCRF-CEM,< 0.01 µM (active)
same,GI50,Hs-578T,> 100 µM (inactive)
same,GI50,HOP-62,> 100 µM (inactive)
same,GI50,SR,> 100 µM (inactive)
same,GI50,SNB-19,> 100 µM (inactive)
same,GI50,RXF 393,> 100 µM (inactive)
same,GI50,SF-268,> 100 µM (inactive)
same,GI50,T47D,> 100 µM (inactive)
same,GI50,UACC-62,> 100 µM (inactive)
same,GI50,PC-3,> 100 µM (inactive)
CCC(CCCC[C@@H]1CC[C@H]2CC(=O)C[C@@H]12)OC (some centres undefined),GI50,SK-MEL-5,73.5 µM (inactive)
same,GI50,SK-OV-3,> 100 µM (inactive)
same,GI50,DU-145,> 100 µM (inactive)
same,GI50,NCI/ADR-RES,76.6 µM (inactive)
same,GI50,M14,> 100 µM (inactive)
same,GI50,MCF7,> 100 µM (inactive)
same,GI50,MOLT-4,> 100 µM (inactive)
same,GI50,IGROV-1,> 100 µM (inactive)
same,GI50,OVCAR-3,> 100 µM (inactive)
same,GI50,COLO 205,> 100 µM (inactive)
same,GI50,EKVX,> 100 µM (inactive)
same,GI50,U-251,> 100 µM (inactive)
same,GI50,786-0,> 100 µM (inactive)
same,GI50,SK-MEL-2,> 100 µM (inactive)
same,GI50,KM12,> 100 µM (inactive)
same,GI50,K562,36.7 µM (inactive)
same,GI50,MDA-MB-231,> 100 µM (inactive)
same,GI50,NCI-H460,> 100 µM (inactive)
same,GI50,HL-60,49.5 µM (inactive)
same,GI50,NCI-H23,91.6 µM (inactive)
same,GI50,OVCAR-8,> 100 µM (inactive)
same,GI50,UACC-257,56.6 µM (inactive)
same,GI50,HOP-92,> 100 µM (inactive)
same,GI50,HCT-116,> 100 µM (inactive)
same,GI50,CCRF-CEM,> 100 µM (inactive)
same,GI50,SNB-19,> 100 µM (inactive)
same,GI50,RXF 393,> 100 µM (inactive)
same,GI50,T47D,> 100 µM (inactive)
same,GI50,UACC-62,> 100 µM (inactive)
same,GI50,PC-3,> 100 µM (inactive)
CC(C)(Oc1ccc2c(=O)cc(-c3ccccc3)oc2c1)C(=O)N1CCN(c2ccccc2)CC1,GI50,SK-MEL-5,4.54 µM (inactive)
same,GI50,SK-OV-3,> 10 µM (inactive)
same,GI50,DU-145,6.12 µM (inactive)
same,GI50,HT-29,4.08 µM (inactive)
same,GI50,SW-620,6.64 µM (inactive)
same,GI50,M14,3.64 µM (inactive)
same,GI50,HCC 2998,5.94 µM (inactive)
same,GI50,MCF7,3.23 µM (inactive)
same,GI50,MOLT-4,2.6 µM (inactive)
same,GI50,IGROV-1,> 10 µM (inactive)
same,GI50,Malme-3M,4.84 µM (inactive)
same,GI50,SF-295,4.71 µM (inactive)
same,GI50,EKVX,5.28 µM (inactive)
same,GI50,786-0,5.89 µM (inactive)
same,GI50,SK-MEL-28,6.81 µM (inactive)
same,GI50,KM12,3.42 µM (inactive)
same,GI50,CAKI-1,3.7 µM (inactive)
same,GI50,K562,3.17 µM (inactive)
same,GI50,MDA-MB-231,6.46 µM (inactive)
same,GI50,HCT-15,4.55 µM
same,GI50,HL-60,1.62 µM (inactive)
same,GI50,TK-10,8.17 µM (inactive)
same,GI50,NCI-H23,3.24 µM (inactive)
same,GI50,LOX IMVI,5.5 µM (inactive)
same,GI50,A549,4.95 µM (inactive)
same,GI50,OVCAR-8,5.57 µM (inactive)
same,GI50,RPMI-8226,2.52 µM (inactive)
same,GI50,SNB-75,4.76 µM (inactive)
same,GI50,UACC-257,3.56 µM (inactive)
same,GI50,SN12C,5.74 µM (inactive)
same,GI50,MDA-N,3.41 µM (inactive)
same,GI50,CCRF-CEM,3.15 µM (inactive)
same,GI50,HOP-62,5.55 µM (inactive)
same,GI50,SR,2.49 µM (inactive)
same,GI50,RXF 393,1.47 µM (inactive)
same,GI50,SF-268,4.16 µM (inactive)
same,GI50,T47D,3.2 µM (inactive)
same,GI50,UACC-62,3.71 µM (inactive)
same,GI50,PC-3,3.05 µM (inactive)
CC(=O)OCC(=O)[C@@]1(O)CC[C@H]2[C@@H]3CCC4=CC(=O)C=C[C@]4(C)[C@@]3(F)[C@@H](O)C[C@@]21C [ISOFLUPREDONE ACETATE],GI50,PC-3,65.3 µM (inactive)
